SMILES strings stand for the structures. pKi: −log10 of the molar value. Where only a bound is given, the exact number is not on record here.

As usually defined, the pKi is the negative decadic logarithm of the Ki, by convention in mol/L.

The first experiment deals with T1, 5-hydroxytryptamine receptor 1A (Homo sapiens, UniProt P08908).
T1 sequence (P08908 whole entry): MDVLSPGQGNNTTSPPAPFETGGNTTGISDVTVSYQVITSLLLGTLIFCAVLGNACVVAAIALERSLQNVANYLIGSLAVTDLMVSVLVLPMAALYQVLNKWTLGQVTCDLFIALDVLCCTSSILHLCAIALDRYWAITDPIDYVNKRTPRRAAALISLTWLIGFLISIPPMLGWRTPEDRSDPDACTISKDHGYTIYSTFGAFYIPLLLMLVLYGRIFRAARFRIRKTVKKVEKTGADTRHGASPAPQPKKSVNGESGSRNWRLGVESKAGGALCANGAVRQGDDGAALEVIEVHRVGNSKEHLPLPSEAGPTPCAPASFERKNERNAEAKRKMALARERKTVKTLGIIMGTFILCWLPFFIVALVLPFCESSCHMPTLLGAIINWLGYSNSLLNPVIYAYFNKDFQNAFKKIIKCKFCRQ
Briefly: Binding affinity to 5HT1A receptor (unknown origin) assessed as inhibition constant by radioligand binding assay.
On to `CC(=O)Oc1cccc2[nH]cc(CCN(C)C)c12`, for which the pKi was < 5.00.

For `CN(C)CCc1c(Cl)[nH]c2ccccc12`, the negative-log Ki (pKi) is < 5.00.

On to `CC(=O)Oc1cccc2[nH]c(Br)c(CCN(C)C)c12`, for which the pKi was < 5.00. Same read-out and setting: the value for `CC(C)N(CCc1c(Br)[nH]c2ccccc12)C(C)C` was < 5.00; that for `CC(=O)Nc1cccc2[nH]cc(CCN(C)C)c12` was < 5.00.

For the next experiment, the target named is 5-hydroxytryptamine receptor 2A (Homo sapiens, UniProt P28223). As to the kind of experiment: Binding affinity to 5-HT2A receptor (unknown origin) assessed as inhibition constant by radioligand binding assay.
Chain of 5-hydroxytryptamine receptor 2A (P28223 whole entry): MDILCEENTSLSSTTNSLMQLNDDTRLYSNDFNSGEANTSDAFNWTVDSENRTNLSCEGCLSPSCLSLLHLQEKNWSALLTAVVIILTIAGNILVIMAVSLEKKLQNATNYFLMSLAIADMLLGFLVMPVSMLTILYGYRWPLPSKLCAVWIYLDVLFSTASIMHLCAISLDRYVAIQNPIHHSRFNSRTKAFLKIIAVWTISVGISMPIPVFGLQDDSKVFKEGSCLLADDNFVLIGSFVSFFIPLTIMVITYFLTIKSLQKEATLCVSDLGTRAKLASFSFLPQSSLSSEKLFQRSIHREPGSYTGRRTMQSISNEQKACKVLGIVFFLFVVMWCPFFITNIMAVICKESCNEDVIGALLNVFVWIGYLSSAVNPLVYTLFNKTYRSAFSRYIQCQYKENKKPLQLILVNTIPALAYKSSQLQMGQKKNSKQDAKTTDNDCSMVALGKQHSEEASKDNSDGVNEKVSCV
With `CC(C)N(CCc1c(Br)[nH]c2ccccc12)C(C)C`, the pKi is < 5.00.

The values above are taken from ChEMBL document CHEMBL6109170, “Integrated Advancements in Neuroplasticity, Psychedelic Therapeutics, and AI-Driven Innovations for Precision Medicine” (ACS Med Chem Lett, 2025).
